Measurements: patent publication EP4729537A1, “B-LACTAMASE-INHIBITING ANTIBODY AND USE THEREOF IN THE TREATMENT AND/OR PREVENTION OF INFECTIONS CAUSED BY B-LACTAMASE-PRODUCING BACTERIA” (priority 2023, dated 2024)
Like-named read-outs stand apart in the source and are kept apart here.

Target: KPC-2 (UNIPROT Q9F663) from Klebsiella pneumoniae, SEQ ID NO. 32 (Klebsiella pneumoniae, UniProt Q9F663)
Conditions: E. coli cells
Protocol: An in vivo assay was conducted to test the inhibitory capacity of four β-lactamases from three resistant microorganisms: BlaMab from Mycobacterium abscessus, KPC-2 (UNIPROT Q9F663) and OXA-48 (UNIPROT Q6XEC0) from Klebsiella pneumoniae, and VIM-2 (UNIPROT B8QIQ9) from Pseudomonas aeruginosa. The assay utilized BL21(DE3) strain cells of Escherichia coli transformed with the expression vector pET26b(+) along with the gene sequence of each β-lactamase. Cells successfully transformed with the vector and insert were selected using a Kanamycin resistance gene (KanR) present in the vector. The presence and orientation of the insert were confirmed using PCR and sequencing. Additionally, the pET26b(+) vector has an IPTG-inducible promoter to activate the translation of the corresponding β-lactamase. The plasmid also includes a pelB export signal directing the β-lactamase to the periplasmic space of the bacteria for the inhibition assay with Ndis (nanobodies, single-domain antibodies).
To obtain Table 4 with the enzymatic constants (Km, Vmax, Kmi, and Ki) of BlaMab-2, KPC-2, VIM-2, and OXA-48 with B2 and B5, a quantitative assay was performed using a cephalosporin analog: nitrocefin. This compound changes color from yellow to red when hydrolyzed by β-lactamase, which can be quantified by measuring absorbance at 490nm. This method was used to study the membrane permeability of the antibodies in the bacteria as well as the inhibitory effect of B2 and B5 on the activity of BlaMab, KPC-2, OXA48, and VIM-2.

Sequence of KPC-2 (UNIPROT Q9F663) from Klebsiella pneumoniae, SEQ ID NO. 32 (Q9F663 25-293 limits assumed): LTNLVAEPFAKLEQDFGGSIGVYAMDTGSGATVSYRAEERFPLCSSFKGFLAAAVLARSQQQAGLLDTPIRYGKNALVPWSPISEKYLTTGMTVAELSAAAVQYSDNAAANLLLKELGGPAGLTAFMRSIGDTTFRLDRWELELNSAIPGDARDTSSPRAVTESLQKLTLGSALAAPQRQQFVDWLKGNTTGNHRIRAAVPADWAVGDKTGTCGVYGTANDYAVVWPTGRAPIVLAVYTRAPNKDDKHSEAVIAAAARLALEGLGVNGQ

O=C(Cc1cccs1)N[C@@H]1C(=O)N2C(C(=O)O)=C(/C=C/c3ccc([N+](=O)[O-])cc3[N+](=O)[O-])CS[C@H]12 [nitrocefin]
Km (read-out: Km(µM) B2, with antibody B2): 121 µM
Km (read-out: Km(µM) B5, with antibody B5): 2.19 µM
Km (read-out: Km(µM) Control without antibody, control without antibody (controls of the B2 and B5 runs)): 1.36 µM
